From patent US12594276B2, “Inhibitors of human immunodeficiency virus replication” (ViiV Healthcare UK (No.5) Limited, priority 2024, dated 2026) come the findings set out here.

Data set [1] concerns recombinant NL4-3 virus (nef section replaced with Renilla luciferase gene) in MT-2 cells. Briefly: HIV cell culture assay (antiviral activity, luciferase readout). Type of data set: cell-based. As to conditions: Renilla, NL43, MT-2 cells infected for 4-5 days with recombinant NL4-3 Renilla luciferase virus. A digest of the protocol:
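Read-out: Renilla luciferase (live-cell substrate) in infected MT-2 cells after 4-5 d with serial compound dilutions. Virus from 293T transfection of the proviral clone, titered by luciferase in MT-2. EC50 via median effect equation fit.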

Data set [2] is described as follows: Compound cytotoxicity, XTT-based colorimetric assay. Type of data set: cell-based. To be noted: human. Summed up:
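Cells seeded as for the antiviral assay but left uninfected (MT2). Compound exposure continued to day 4. XTT reagent added and colour read. CC50 calculated.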
Background: Tetrazolium dyes change colour on reduction, which living cells bring about.

Setting [3] is: uninfected MT2 cells, day 4, XTT, read-out: CC50.

Read-outs that look alike come from different tables or passages of the source. Where only a bound is given, the exact number is not on record here.

With `Cc1cc(C2CCC(F)(F)CC2)nc2nc([C@H](Cc3cc(F)cc(F)c3)NC(=O)Cn3nc(C(F)F)c4c3C(F)(F)[C@@H]3C[C@H]43)n(-c3ccc(Cl)c4c(NS(C)(=O)=O)nn(CCN5[C@@H]6CC[C@H]5CC(F)(F)C6)c34)c(=O)c12` (atropisomer, axis not shown; (P)) [Example 246, N-[(1S)-1-[(3P)-3-(4-chloro-1-{2-[(1R,5S)-3,3-difluoro-8-azabicyclo[3.2.1]octan-8-yl]ethyl}-3-methanesulfonamido-1H-indazol-7-yl)-7-(4,4-difluorocyclohexyl)-5-methyl-4-oxo-3H,4H-pyrido[2,3-d]pyrimidin-2-yl]-2-(3,5-difluorophenyl)ethyl]-2-[(2S,4R)-9-(difluoromethyl)-5,5-difluoro-7,8-diazatricyclo[4.3.0.0^2,^4]nona-1(6),8-dien-7-yl]acetamide], the EC50 (in general, the concentration that produces a half-maximal response) in data set [1] amounted to 0.028 nM. For the same compound, the CC50 (as a rule, the concentration at which the toxic effect on the cells reaches its halfway point) at 4 days in data set [2] is over 50 nM.

As for `CC(C)[C@H]1CN(CCn2nc(NS(C)(=O)=O)c3c(Cl)ccc(-n4c([C@H](Cc5cc(F)cc(F)c5)NC(=O)Cn5nc(C6CC6)c6c5C[C@@H]5C[C@H]65)nc5nc(C6CCC(F)(F)CC6)ccc5c4=O)c32)CCO1` (atropisomer, axis not shown; (P)) [Example 434, N-[(1S)-1-[(3P)-3-(4-chloro-3-methanesulfonamido-1-{2-[(2S)-2-(propan-2-yl)morpholin-4-yl]ethyl}-1H-indazol-7-yl)-7-(4,4-difluorocyclohexyl)-4-oxo-3H,4H-pyrido[2,3-d]pyrimidin-2-yl]-2-(3,5-difluorophenyl)ethyl]-2-[(2S,4S)-9-cyclopropyl-7,8-diazatricyclo[4.3.0.0^2,^4]nona-1(6),8-dien-7-yl]acetamide], in data set [1], the concentration giving a half-maximal response (EC50) is 0.01 nM. In addition, the CC50 at 4 days in data set [2] (setting [3]) was over 20 nM.

For `COCCCn1nc(NS(C)(=O)=O)c2c(Cl)ccc(-n3c([C@H](Cc4cc(F)cc(F)c4)NC(=O)Cn4nc(C(F)(F)F)c5c4C[C@@H]4C[C@H]54)nc4nc(C5CCC(F)(F)CC5)cc(C)c4c3=O)c21` (atropisomer, axis not shown; (P)) [Example 88, N-[(1S)-1-[(3P)-3-[4-chloro-3-methanesulfonamido-1-(3-methoxypropyl)-1H-indazol-7-yl]-7-(4,4-difluorocyclohexyl)-5-methyl-4-oxo-3H,4H-pyrido[2,3-d]pyrimidin-2-yl]-2-(3,5-difluorophenyl)ethyl]-2-[(2S,4S)-9-(trifluoromethyl)-7,8-diazatricyclo[4.3.0.0^2,^4]nona-1(6),8-dien-7-yl]acetamide], the EC50 in data set [1] turned out to be 0.021 nM. The CC50 at 4 days in data set [2] (setting [3]) was over 50 nM.

Regarding `Cc1cc(C2CCC(F)(F)CC2)nc2nc([C@H](Cc3cc(F)cc(F)c3)NC(=O)Cn3nc(C4CC4)c4c3C[C@@H]3C[C@H]43)n(-c3ccc(Cl)c4c(NS(C)(=O)=O)nn(C[C@@H](C)N5C[C@H](F)C[C@H](F)C5)c34)c(=O)c12` (relative stereo) [Example 685, N-[(1S)-1-[(3P)-3-{4-chloro-1-[(2R)-2-[(3R,5S)-3,5-difluoropiperidin-1-yl]propyl]-3-methanesulfonamido-1H-indazol-7-yl}-7-(4,4-difluorocyclohexyl)-5-methyl-4-oxo-3H,4H-pyrido[2,3-d]pyrimidin-2-yl]-2-(3,5-difluorophenyl)ethyl]-2-[(2R*,4R*)-9-cyclopropyl-7,8-diazatricyclo[4.3.0.0^2,^4]nona-1(6),8-dien-7-yl]acetamide], the EC50 in data set [1] came out at 0.01 nM. Also, the CC50 at 4 days in data set [2] (setting [3]) was over 20 nM.

In the case of `Cc1cc(C2(F)CCC(F)(F)CC2)nc2nc([C@H](Cc3cc(F)cc(F)c3)NC(=O)Cn3nc(C(F)F)c4c3C(F)(F)[C@@H]3C[C@H]43)n(-c3ccc(Cl)c4c(NS(C)(=O)=O)nn(CCN5[C@@H]6CC[C@H]5COC6)c34)c(=O)c12` (atropisomer, axis not shown; (P)) [Example 590, N-[(1S)-1-[(3P)-3-(4-chloro-3-methanesulfonamido-1-{2-[(1R,5S)-3-oxa-8-azabicyclo[3.2.1]octan-8-yl]ethyl}-1H-indazol-7-yl)-5-methyl-4-oxo-7-(1,4,4-trifluorocyclohexyl)-3H,4H-pyrido[2,3-d]pyrimidin-2-yl]-2-(3,5-difluorophenyl)ethyl]-2-[(2S,4R)-9-(difluoromethyl)-5,5-difluoro-7,8-diazatricyclo[4.3.0.0^2,^4]nona-1(6),8-dien-7-yl]acetamide], the EC50 in data set [1] worked out at 0.013 nM. The compound also came in with a CC50 at 4 days in data set [2] of over 20 nM.

Regarding `CS(=O)(=O)Nc1nn(CCN2CCC(C(F)(F)F)C2)c2c(-n3c([C@H](Cc4cc(F)cc(F)c4)NC(=O)Cn4nc(C(F)F)c5c4C(F)(F)[C@@H]4C[C@H]54)nc4nc(C5CCC(F)(F)CC5)ccc4c3=O)ccc(Cl)c12` (stereo partly drawn) [Example 199, N-[(1S)-1-[(3P)-3-(4-chloro-3-methanesulfonamido-1-{2-[3-(trifluoromethyl)pyrrolidin-1-yl]ethyl}-1H-indazol-7-yl)-7-(4,4-difluorocyclohexyl)-4-oxo-3H,4H-pyrido[2,3-d]pyrimidin-2-yl]-2-(3,5-difluorophenyl)ethyl]-2-[(2S,4R)-9-(difluoromethyl)-5,5-difluoro-7,8-diazatricyclo[4.3.0.0^2,^4]nona-1(6),8-dien-7-yl]acetamide], in data set [1], the EC50 turned out to be 0.023 nM. In addition, the CC50 at 4 days in data set [2] (setting [3]) was over 50 nM.

For the compound `Cc1cc(C2CCC(F)(F)CC2)nc2nc([C@H](Cc3cc(F)cc(F)c3)NC(=O)Cn3nc(C(F)F)c4c3C(F)(F)[C@@H]3C[C@H]43)n(-c3ccc(Cl)c4c(NS(C)(=O)=O)nn(CCN5C[C@@H](C)OC(C)(C)C5)c34)c(=O)c12` (atropisomer, axis not shown; (P)) [Example 454, N-[(1S)-1-[(3P)-3-(4-chloro-3-methanesulfonamido-1-{2-[(6R)-2,2,6-trimethylmorpholin-4-yl]ethyl}-1H-indazol-7-yl)-7-(4,4-difluorocyclohexyl)-5-methyl-4-oxo-3H, 4H-pyrido[2,3-d]pyrimidin-2-yl]-2-(3,5-difluorophenyl)ethyl]-2-[(2S,4R)-9-(difluoromethyl)-5,5-difluoro-7,8-diazatricyclo[4.3.0.0^2,^4]nona-1(6),8-dien-7-yl]acetamide], the EC50 in data set [1] turned out to be 0.01 nM. In addition, in data set [2] (setting [3]), the CC50 at 4 days was over 20 nM.

Consider `CCOCCn1nc(NS(C)(=O)=O)c2c(Cl)ccc(-n3c([C@H](Cc4cc(F)cc(F)c4)NC(=O)Cn4nc(C(F)F)c5c4C(F)(F)[C@@H]4C[C@H]54)nc4nc(C5CCC(F)(F)CC5)cc(C)c4c3=O)c21` (atropisomer, axis not shown; (P)) [Example 60, N-[(1S)-1-[(3P)-3-[4-chloro-1-(2-ethoxyethyl)-3-methanesulfonamido-1H-indazol-7-yl]-7-(4,4-difluorocyclohexyl)-5-methyl-4-oxo-3H,4H-pyrido[2,3-d]pyrimidin-2-yl]-2-(3,5-difluorophenyl)ethyl]-2-[(2S,4R)-9-(difluoromethyl)-5,5-difluoro-7,8-diazatricyclo[4.3.0.0^2,^4]nona-1(6),8-dien-7-yl]acetamide], for which the EC50 in data set [1] was 0.012 nM. In addition, the CC50 at 4 days in data set [2] (setting [3]) was over 50 nM.

Regarding `CCOCCn1nc(NS(C)(=O)=O)c2c(Cl)ccc(-n3c([C@H](Cc4cc(F)cc(F)c4)NC(=O)Cn4nc(C(F)F)c5c4C(F)(F)[C@@H]4C[C@H]54)nc4nc(C5CCC(F)(F)CC5)cc(C(F)F)c4c3=O)c21` (atropisomer, axis not shown; (P)) [Example 150, N-[(1S)-1-[(3P)-3-[4-chloro-1-(2-ethoxyethyl)-3-methanesulfonamido-1H-indazol-7-yl]-7-(4,4-difluorocyclohexyl)-5-(difluoromethyl)-4-oxo-3H,4H-pyrido[2,3-d]pyrimidin-2-yl]-2-(3,5-difluorophenyl)ethyl]-2-[(2S,4R)-9-(difluoromethyl)-5,5-difluoro-7,8-diazatricyclo[4.3.0.0^2,^4]nona-1(6),8-dien-7-yl]acetamide], the EC50 in data set [1] was determined as 0.017 nM. Further, in data set [2] (setting [3]), the half-maximal cytotoxic concentration (CC50) at 4 days is over 50 nM.

Regarding `CS(=O)(=O)Nc1nn(CCN2CCC(F)(F)CC2)c2c(-n3c([C@H](Cc4cc(F)cc(F)c4)NC(=O)Cn4nc(C5CC5)c5c4C[C@@H]4C[C@H]54)nc4nc(C5CCC(F)(F)CC5)c(F)cc4c3=O)ccc(Cl)c12` (atropisomer, axis not shown; (P)) [Example 239, N-[(1S)-1-[(3P)-3-{4-chloro-1-[2-(4,4-difluoropiperidin-1-yl)ethyl]-3-methanesulfonamido-1H-indazol-7-yl}-7-(4,4-difluorocyclohexyl)-6-fluoro-4-oxo-3H,4H-pyrido[2,3-d]pyrimidin-2-yl]-2-(3,5-difluorophenyl)ethyl]-2-[(2S,4S)-9-cyclopropyl-7,8-diazatricyclo[4.3.0.0^2,^4]nona-1(6),8-dien-7-yl]acetamide], in data set [1], the EC50 is 0.021 nM. The CC50 at 4 days in data set [2] (setting [3]) was over 50 nM.

For the compound `Cc1cc(C2CCC(F)(F)CC2)nc2nc([C@H](Cc3cc(F)cc(F)c3)NC(=O)Cn3nc(C4CC4)c4c3C[C@@H]3C[C@H]43)n(-c3ccc(Cl)c4c(NS(C)(=O)=O)nn(CCN5CCCC(F)(F)CC5)c34)c(=O)c12` (atropisomer, axis not shown; (P)) [Example 3, N-[(1S)-1-[(3P)-3-{4-chloro-1-[2-(4,4-difluoroazepan-1-yl)ethyl]-3-methanesulfonamido-1H-indazol-7-yl}-7-(4,4-difluorocyclohexyl)-5-methyl-4-oxo-3H,4H-pyrido[2,3-d]pyrimidin-2-yl]-2-(3,5-difluorophenyl)ethyl]-2-[(2S,4S)-9-cyclopropyl-7,8-diazatricyclo[4.3.0.0^2,^4]nona-1(6),8-dien-7-yl]acetamide], in data set [1], the EC50 stood at 0.009 nM. For the same compound, the CC50 at 4 days in data set [2] (setting [3]) was over 50 nM.
